Source: article PMC3118614 (Biomedical chromatography : BMC, 2010)
Like-named read-outs stand apart in the source and are kept apart here.

Assays:
[1] = ref Rowland et al., 2007; cited from earlier work
[2] = assay type: in vivo, olive baboons (Papio Anubis)

## Cc1cc(=O)[nH]c2c1NC(=O)c1cccnc1N2C1CC1 [2-OHNVP, 2-hydroxynevirapine]
[1]
  metabolites detected in human plasma (metabolic profile, in words): major metabolites

## Cc1c(O)cnc2c1NC(=O)c1cccnc1N2C1CC1 [3-OHNVP]
[1]
  metabolites detected in human plasma (metabolic profile, in words): major metabolites
[2]; in vivo, po, 5 mg/kg
  Cmax (maximum concentration): 11.50 ± 3.63 ng/mL
[2]; in vivo, po, 10 mg/kg
  Cmax (maximum concentration): 19.69 ± 9.94 ng/mL
[2]; in vivo, po, 400 mg
  Cmax (maximum concentration): 16.53 ± 1.10 ng/mL
[2]; in vivo, po, 800 mg
  Cmax (maximum concentration): 72.85 ± 60.37 ng/mL

## O=C1Nc2c(C(=O)O)ccnc2N(C2CC2)c2ncccc21 [4-CANVP, nevirapine 4-carboxylic acid]
[2]; baboon serum, single oral dose of NVP 5 mg/kg, solution formulation, n = 2, mean
  Cmax (maximum concentration): 144.90 ± 22.31 ng/mL

## Cc1ccnc2c1NC(=O)c1cc(O)cnc1N2C1CC1 [8-OHNVP]
[1]
  metabolites detected in human plasma (metabolic profile, in words): low plasma level

## O=C1Nc2c(CO)ccnc2N(C2CC2)c2ncccc21 [12-OHNVP]
[1]
  metabolites detected in human plasma (metabolic profile, in words): major metabolites
[2]; in vivo, 5 mg/kg
  ratio of the plasma level of 12-OHNVP and 4-CANVP: 0.21
[2]; in vivo, 10 mg/kg
  ratio of the plasma level of 12-OHNVP and 4-CANVP: 1.3
[2]; in vivo, po, 5 mg/kg
  Cmax (maximum concentration): 31.38 ± 10.59 ng/mL
[2]; in vivo, po, 10 mg/kg
  Cmax (maximum concentration): 275.25 ± 126.07 ng/mL
[2]; in vivo, po, 400 mg
  Cmax (maximum concentration): 157.16 ± 7.06 ng/mL
[2]; in vivo, po, 800 mg
  Cmax (maximum concentration): 385.38 ± 346.21 ng/mL
